Measurements taken from patent US9533968B2, “N-thio-anthranilamide compounds and their use as pesticides” (BASF SE, priority 2012, dated 2017).

Tests used:
Format in all cases: in vivo
[1] = test system: Silverleaf Whitefly (Bemisia argentifolii); test: Silverleaf whitefly test, sprayed cotton plants; conditions: at 100 ppm; silverleaf whitefly adults; 3 days after treatment
Text: (§1) The active compounds are formulated in cyclohexanone as a 10,000 ppm solution supplied in tubes. The tubes are inserted into an automated electrostatic sprayer equipped with an atomizing nozzle and they serve as stock solutions for which lower dilutions are made in 50% acetone:50% water (v/v). A nonionic surfactant (Kinetic®) is included in the solution at a volume of 0.01% (v/v).
Cotton plants at the cotyledon stage (one plant per pot) are sprayed by an automated electrostatic plant sprayer equipped with an atomizing spray nozzle. The plants are dried in the sprayer fume hood and then removed from the sprayer. Each pot is placed into a plastic cup and about 10 to 12 whitefly adults (approximately 3-5 days old) are introduced. The insects are collected using an aspirator and a nontoxic Tygon® tubing connected to a barrier pipette tip. The tip, containing the collected insects, is then gently inserted into the soil containing the treated plant, allowing insects to crawl out of the tip to reach the foliage for feeding. Cups are covered with a reusable screened lid. Test plants are maintained in a growth room at about 25° C. and about 20-40% relative humidity for 3 days, avoiding direct exposure to fluorescent light (24 hour photoperiod) to prevent trapping of heat inside the cup. Mortality is assessed 3 days after treatment, compared to untreated control plants.

[2] = test system: Diamond Back Moth (Plutella Xylostella); test: Diamond back moth test, cabbage leaf dip; conditions: foliar, 72 h, read-out: mortality in comparison with untreated controls
Procedure: The active compound is dissolved at the desired concentration in a mixture of 1:1 (vol/vol) distilled water:aceteone. Surfactant (Alkamuls® EL 620) is added at a rate of 0.1% (vol/vol). The test solution is prepared at the day of use.
Leaves of cabbage are dipped in test solution and air-dried. Treated leaves are placed in petri dishes lined with moist filter paper and inoculated with ten 3rd instar larvae. Mortality is recorded 72 hours after treatment. Feeding damages are also recorded using a scale of 0-100%.

[3] = test system: Mediterranean fruitfly (Ceratitis capitata); test: Mediterranean fruitfly test, microtiter plates with insect diet and eggs; conditions: 120 h, read-out: mortality in comparison with untreated controls
Procedure: For evaluating control of Mediterranean fruitfly (Ceratitis capitata) the test unit consists of microtiter plates containing an insect diet and 50-80 C. capitata eggs.
(§2) The compounds are formulated using a solution containing 75% v/v water and 25% v/v DMSO. Different concentrations of formulated compounds are sprayed onto the insect diet at 5 μl, using a custom built micro atomizer, at two replications.
After application, microtiter plates are incubated at about 28±1° C. and about 80±5% relative humidity for 5 days. Egg and larval mortality is then visually assessed.

[4] = test system: Orchid Thrips (Dichromothrips Corbetti); test: Orchid thrips test, floral-immersion technique; conditions: 96 h, read-out: mortality in comparison with untreated controls
Procedure: Dichromothrips corbetti adults used for bioassay are obtained from a colony maintained continuously under laboratory conditions. For testing purposes, the test compound is diluted to a concentration of 300 ppm (wt compound: vol diluent) in a 1:1 mixture of acetone:water (vol:vol), plus 0.01% vol/vol Kinetic® surfactant.
Thrips potency of each compound is evaluated by using a floral-immersion technique. Plastic petri dishes are used as test arenas. All petals of individual, intact orchid flowers are dipped into treatment solution and allowed to dry. Treated flowers are placed into individual petri dishes along with 10-15 adult thrips. The petri dishes are then covered with lids. All test arenas are held under continuous light and a temperature of about 28° C. for duration of the assay. After 4 days, the numbers of live thrips are counted on each flower, and along inner walls of each petri dish. The level of thrips mortality is extrapolated from pre-treatment thrips numbers.

[5] = test system: Southern Armyworm (Spodoptera eridania); test: Southern armyworm test, sprayed lima bean plants; conditions: 96 h, read-out: mortality in comparison with untreated controls
Procedure: as §1
Lima bean plants (variety Sieva) are grown 2 plants to a pot and selected for treatment at the 1st true leaf stage. Test solutions are sprayed onto the foliage by an automated electrostatic plant sprayer equipped with an atomizing spray nozzle. The plants are dried in the sprayer fume hood and then removed from the sprayer. Each pot is placed into perforated plastic bags with a zip closure. About 10 to 11 armyworm larvae are placed into the bag and the bags zipped closed. Test plants are maintained in a growth room at about 25° C. and about 20-40% relative humidity for 4 days, avoiding direct exposure to fluorescent light (24 hour photoperiod) to prevent trapping of heat inside the bags. Mortality and reduced feeding are assessed 4 days after treatment, compared to untreated control plants.

[6] = test system: vetch aphid (Megoura viciae); test: Vetch aphid test, broad bean leaf disks in microtiter plates; conditions: foliar, 120 h, read-out: mortality in comparison with untreated controls
Procedure: For evaluating control of vetch aphid (Megoura viciae) through contact or systemic means the test unit consists of 24-well-microtiter plates containing broad bean leaf disks.
The compounds are formulated using a solution containing 75% v/v water and 25% v/v DMSO. Different concentrations of formulated compounds are sprayed onto the leaf disks at 2.5 μl, using a custom built micro atomizer, at two replications.
After application, the leaf disks are air-dried and 5-8 adult aphids placed on the leaf disks inside the microtiter plate wells. The aphids are then allowed to suck on the treated leaf disks and incubated at about 23±1° C. and about 50±5% relative humidity for 5 days. Aphid mortality and fecundity is then visually assessed.

[7] = test system: Tobacco Budworm (Heliothis virescens); test: Tobacco budworm test, microtiter plates with insect diet and eggs; conditions: 120 h, read-out: mortality in comparison with untreated controls
Procedure: as §2, with “The test unit consisted of 96-well-microtiter plates containing an insect diet and 15-25 H. virescens eggs. The” for “The”, “compounds were” for “compounds are”, “at 10” for “at 5”
After application, microtiter plates were incubated at about 28±1° C. and about 80±5% relative humidity for 5 days. Egg and larval mortality was then visually assessed.

[8] = test system: boll weevil (Anthonomus grandis); test: Boll weevil test, microtiter plates with insect diet and eggs; conditions: 120 h, read-out: mortality in comparison with untreated controls
Procedure: For evaluating control of boll weevil (Anthonomus grandis) the test unit consists of 24-well-microtiter plates containing an insect diet and 20-30 A. grandis eggs.
The compounds are formulated using a solution containing 75% v/v water and 25% v/v DMSO. Different concentrations of formulated compounds are sprayed onto the insect diet at 20 μl, using a custom built micro atomizer, at two replications.
After application, microtiter plates are incubated at about 23±1° C. and about 50±5% relative humidity for 5 days. Egg and larval mortality is then visually assessed.

[9] = test system: Rice Green Leafhopper (Nephotettix virescens); test: Rice green leafhopper test, sprayed rice seedlings; conditions: 72 h, read-out: mortality in comparison with untreated controls
Procedure: Rice seedlings are cleaned and washed 24 hours before spraying. The active compounds are formulated in 50:50 acetone:water (vol:vol), and 0.1% vol/vol surfactant (EL 620) is added. Potted rice seedlings are sprayed with 5 ml test solution, air dried, placed in cages and inoculated with 10 adults. Treated rice plants are kept at about 28-29° C. and relative humidity of about 50-60%. Percent mortality is recorded after 72 hours.

[10] = test system: Colorado Potato Beetle (Leptinotarsa decemlineata); test: Colorado potato beetle test, sprayed eggplant foliage; conditions: foliar, 96 h, read-out: mortality in comparison with untreated controls
Procedure: as §1
Eggplants are grown 2 plants to a pot and are selected for treatment at the 1st true leaf stage. Test solutions are sprayed onto the foliage by an automated electrostatic plant sprayer equipped with an atomizing spray nozzle. The plants are dried in the sprayer fume hood and then removed from the sprayer. The treated foliage is then cut and removed from the pot and placed in a Petri dish lined with moistened filter pa-per. Five beetle larvae are introduced into each Petri dish and the dish is covered by a Petri dish lid. Petri dishes are maintained in a growth room at about 25° C. and about 20-40% relative humidity for 4 days, avoiding direct exposure to fluorescent light (24 hour photoperiod) to prevent trapping of heat inside the dishes. Mortality and reduced feeding are assessed 4 days after treatment, compared to untreated control plants.

[11] = test system: Cowpea Aphid (Aphis Craccivora); test: Cowpea aphid test, sprayed potted cowpea plants; conditions: read-out: mortality in comparison with untreated controls
Procedure: If not otherwise specified the test solutions are prepared as follow:
The active compound is dissolved at the desired concentration in a mixture of 1:1 (vol:vol) distilled water:aceton. The test solution is prepared at the day of use and in general at concentrations of […].
Potted cowpea plants colonized with approximately 100-150 aphids of various stages are sprayed after the pest population has been recorded. Population reduction is assessed after 24, 72, and 120 hours.

CC(C)[S+]([O-])NC(=O)c1cc(Br)cc(Br)c1NC(=O)c1cc(C(F)(F)F)nn1-c1ncccc1Cl (stereo not drawn) [Compound 1-7]
over 75%: mortality in comparison with untreated controls [1]

CSNC(=O)c1cc(Cl)cc(C)c1NC(=O)c1cc(C(F)(F)F)nn1-c1ncccc1Cl [Compound 1-22, N-[4-chloro-2-methyl-6-(methylsulfanylcarbamoyl)phenyl]-2-(3-chloro-2-pyridyl)-5-(trifluoromethyl)pyrazole-3-carboxamide]
> 75%: mortality at 500 ppm [2] | mortality at 2500 ppm [3] | mortality at 500 ppm [4] | mortality at 1 ppm [5] | mortality at 2500 ppm [6] | mortality at 2500 ppm [7] | mortality at 2500 ppm [8] | mortality at 500 ppm [9] | mortality at 1 ppm [10]

Cc1cc(Cl)cc(C(=O)N[S+](C)[O-])c1NC(=O)c1cc(C(F)(F)F)nn1-c1ncccc1Cl (stereo not drawn) [Compound 1-28, N-[4-chloro-2-methyl-6-(methylsulfinylcarbamoyl)phenyl]-2-(3-chloro-2-pyridyl)-5-(trifluoromethyl)pyrazole-3-carboxamide]
> 75%: mortality at 500 ppm [11] | mortality at 500 ppm [2] | mortality at 2500 ppm [3] | mortality at 500 ppm [4] | mortality at 2500 ppm [6] | mortality at 2500 ppm [7] | mortality at 2500 ppm [8] | mortality at 500 ppm [9]
